Assay results as given in patent US9499493B2, “2,4-pyrimidinediamine compounds and their uses” (Rigel Pharmaceuticals, Inc., priority 2002, dated 2016).

Assays:
[1] = test system: cultured human mast cells (CHMC); assay: CHMC low cell density IgE activation: tryptase assay; type: cell-based; details: anti-IgE
In short: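 Cultured human mast cells (1000-1500 cells/well, donor-dependent) equilibrated 1 hr at 37° C, then stimulated with anti-IgE for 30 min at 37° C. Tryptase released into the supernatant is measured with a fluorogenic tryptase substrate after 30 min at room temperature.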

[2] = test system: cultured human mast cells (CHMC); assay: CHMC low cell density ionomycin activation: tryptase assay; type: cell-based

Structure (SMILES) | IC50 [1] [µM] | IC50 [2] [µM]
CCOC(=O)COc1ccc(Nc2nc(Nc3ccc(OCC(=O)OCC)cc3)c([N+](=O)[O-])c(C(=O)OCC)n2)cc1 [R926566, N2,N4-Bis(4-ethoxycarbonylmethylenedioxyphenyl)-6-ethoxycarbonyl-5-nitro-2,4-pyrimidinediamine] | 2.73 | > 10
COC(=O)c1ccc(Cn2cc3ccc(Nc4ncc(F)c(Nc5ccc(OC(C)C)cc5)n4)cc3n2)c(OC)c1 [R935338, 5-Fluoro-N4-(4-isopropoxyphenyl)-N2-[2-(2-methoxy-4-carbomethoxybenzyl)indazoline-6-yl]-2,4-pyrimidinediamine] | 0.411 | > 10
CCOC(=O)C(C)(C)c1ccc(Nc2ncc(F)c(Nc3ccc(OC(C)C)cc3)n2)cc1 [R935150, N2-[4-[(1-Ethoxycarbonyl-1-methyl)ethyl]phenyl]-5-fluoro-N4-(4-isopropoxyphenyl)-2,4-pyrimidinediamine] | 1.93 | 9.74
O=C(COc1cccc(Nc2ncc(F)c(Nc3ccc4c(c3)OCCO4)n2)c1)NC(CO)CO [R926784, N2-[3-(N-1,3-Dihydroxy-2-propylamino)carbonylmethyleneoxyphenyl]-N4-(3,4-ethylenedioxyphenyl)-5-fluoro-2,4-pyrimidinediamine] | 0.252 | > 10
COC(=O)Cn1ncc2ccc(Nc3nc(Nc4ccc5c(c4)OCCO5)ncc3F)cc21 [R935219, N2-(3,4-Ethylenedioxyphenyl)-5-fluoro-N4-[1-(methoxycarbonyl)methyl-indazoline-6-yl]-2,4-pyrimidinediamine] | 5.41 | > 10
COc1cccc(CNC(=O)COc2ccc(Nc3ncc(Br)c(Nc4ccc(OCC(=O)NCc5cccc(OC)c5)cc4)n3)cc2)c1 [R925841, N2,N4-Bis[4-[N-(3-methoxybenzylamino)carbonylmethyleneoxy]phenyl]-5-bromo-2,4-pyrimidinediamine] | > 10 | > 10
CNC(=O)C1Cc2cc(Nc3ncc(F)c(Nc4ccc5c(c4)OC(F)(F)O5)n3)ccc2O1 (racemic) [R927041, (±)-N2-[2,3-Dihydro-(N-methylamino)carbonylbenzofuran-5-yl]-N4-(3,4-difluoromethyleneoxyphenyl)-5-fluoro-2,4-pyrimidinediamine] | 0.788 | > 10
OCCCn1ncc2ccc(Nc3ncc(F)c(Nc4ccc5oc(CO)cc5c4)n3)cc21 [R935308, 5-Fluoro-N4-(2-hydroxymethylbenzofur-5-yl)-N2-[1-(3-hydroxypropyl)indazoline-6-yl]-2,4-pyrimidinediamine] | 0.275 | > 10
Cc1ccc(-c2ccccc2)cc1Nc1ncc(F)c(Nc2cc(-c3ccccc3)ccc2C)n1 [R926402, N2,N4-Bis[(2-methyl-5-phenyl)phenyl]-5-fluoro-2,4-pyrimidinediamine] | > 10 | > 10
COC(=O)COc1ccc(Nc2ncc(C(=O)OC)c(Nc3ccc(OCC(=O)OC(C)(C)C)cc3)n2)cc1 [R926580, N4-(4-tert-Butoxycarbonylmethyleneoxyphenyl)-N2-(4-methoxycarbonylmethyleneoxyphenyl)-5-methoxycarbonyl-2,4-pyrimidinediamine] | 10 | > 10
N#Cc1cnc(Nc2ccc(OCC(=O)N3CCOCC3)cc2)nc1Nc1ccc(OCC(=O)N2CCOCC2)cc1 [R925854, N2,N4-Bis[4-(N-morphonlino)carbonylmethyleneoxyphenyl]-5-cyano-2,4-pyrimidinediamine] | > 10 | > 10
CCOC(=O)COc1ccc(Nc2nc(Cl)c(Cl)c(Nc3ccc(OCC(=O)OCC)cc3)n2)cc1 [R926569, N2,N4-Bis(4-ethoxycarbonylmethyleneoxyphenyl)-5,6-dichloro-2,4-pyrimidinediamine] | 0.61 | 3.07
CC(C)(CO)c1ccc(Nc2nc(Nc3ccc4c(c3)OCCO4)ncc2F)cc1 [R935173, N2-(3,4-Ethylenedioxyphenyl)-5-fluoro-N4-[4-(2-hydroxy-1,1-dimethylethyl)phenyl]-2,4-pyrimidinediamine] | 0.454 | > 10
Fc1cnc(Nc2ccc3[nH]ncc3c2)nc1Nc1ccc(OC(F)(F)F)c(Cl)c1 [R935366, N4-(3-Chloro-4-trifluoromethoxyphenyl)-5-fluoro-N2-(indazoline-5-yl)-2,4-pyrimidinediamine] | 0.216 | > 10
CNC(=O)COc1cc(Nc2ncc(F)c(Nc3ccc4cc[nH]c4c3)n2)ccc1OC [R926752, 5-Fluoro-N4-[(1H)-indol-6-yl]-N2-[4-methoxy-3-[(N-methylamino)carbonylmethyleneoxy]phenyl]-2,4-pyrimidinediamine] | 0.338 | > 10
Cn1nnnc1COc1ccc(Nc2ncc(F)c(Nc3ccc(OCc4nnnn4C)cc3)n2)cc1 [R945048, N2,N4-Bis[4-(1-methyl-1,2,3,4-tetrazol-5-yl)methyleneoxyphenyl]-5-fluoro-2,4-pyrimidinediamine] | 0.76 | > 10
CNC(=O)COc1ccc(Nc2nc(Nc3ccc4c(c3)OCCO4)ncc2F)cc1 [R945173, N2-(3,4-Ethylenedioxyphenyl)-5-fluoro-N4-(4-methylaminocarbonylmethyleneoxyphenyl)-2,4-pyrimidinediamine] | 1.42 | > 10
CCOC(=O)COc1ccc(Nc2nc(Nc3ccc(OCC(=O)OCC)cc3)c(NC(=O)NC3CCCC3)c(C(=O)OCC)n2)cc1 [R926588, N2,N4-Bis(4-ethoxycarbonylmethyleneoxyphenyl)-6-ethoxycarbonyl-5-(cyclopentylaminocarbonylamino)-2,4-pyrimidinediamine] | 7.85 | > 10

More lines, now with the values ahead:

IC50 [1] [µM] | IC50 [2] [µM] | Structure (SMILES)
1.4 | > 10 | Cc1noc(COc2ccc(Nc3nc(Nc4cccc(O)c4)ncc3F)cc2)n1 [R935147, 5-Fluoro-N2-(3-hydroxyphenyl)-N4-[4-(3-methyl-1,2,4-oxadiazol-5-yl)methyleneoxyphenyl]-2,4-pyrimidinediamine]
0.272 | > 10 | CC(C)c1cccc(Nc2nc(Nc3cccc(OCCO)c3)ncc2F)c1 [R940289, 5-Fluoro-N2-[3-(2-hydroxyethyleneoxy)phenyl]-N4-(3-isopropylphenyl)-2,4-pyrimidinediamine]
0.794 | > 10 | Fc1cnc(Nc2ccc3[nH]ncc3c2)nc1Nc1ccc(Cl)c(Cl)c1 [R935371, N4-(3,4-Dichlorophenyl)-5-fluoro-N2-(indazoline-5-yl)-2,4-pyrimidinediamine]
> 10 | > 10 | Cn1ncc2cc(Nc3ncc(F)c(Nc4ccc(F)c(F)c4)n3)ccc21 [R935358, N4-(3,4-Difluorophenyl)-5-fluoro-N2-(1-methylindazoline-5-yl)-2,4-pyrimidinediamine]
4.85 | > 10 | CSc1nc(Nc2cccc(O)c2)nc(Nc2cccc(O)c2)c1Cl [R926595, N2,N4-Bis(3-hydroxyphenyl)-5-chloro-6-thiomethyl-2,4-pyrimidinediamine]
0.188 | > 10 | OCCCn1ncc2cc(Nc3ncc(F)c(Nc4cccc(O)c4)n3)ccc21 [R935304, 5-Fluoro-N4-(3-hydroxyphenyl)-N2-[1-(3-hydroxypropyl)indazoline-5-yl]-2,4-pyrimidinediamine]
> 10 | > 10 | Cn1ncc2cc(Nc3ncc(F)c(Nc4ccc(Cl)cc4)n3)ccc21 [R935351, N4-(4-Chlorophenyl)-5-fluoro-N2-(1-methyl-indazoline-5-yl)-2,4-pyrimidinediamine]
0.763 | > 10 | CN1CCN(C(=O)CNc2cccc(Nc3ncc(F)c(Nc4cccc(O)c4)n3)c2)CC1 [R950223, 5-Fluoro-N4-(3-hydroxyphenyl)-N2-[3-[N—(N-methyl)piperazino]carbonylmethyleneaminophenyl]-2,4-pyrimidinediamine]
1.86 | > 10 | CNC(=O)COc1cccc(Nc2ncc(F)c(Nc3ccc4c(c3)CNCC4)n2)c1 [R926914, 5-Fluoro-N4-(1,2,3,4-tetrahydroisoquin-7-yl)-N2-[3-[(N-methylamino)carbonylmethyleneoxy]phenyl]-2,4-pyrimidinediamine]
0.888 | 5.57 | Cc1cnc(Nc2ccc(OCc3nnnn3C)cc2)nc1Nc1cccc(O)c1 [R920894, N4-(3-Hydroxyphenyl)-5-methyl-N2-[4-(1-methyl-1,2,3,4-tetrazol-5-yl)methyleneoxyphenyl]-2,4-pyrimidineamine]
1.76 | > 10 | Oc1cccc(Nc2ncc(F)c(Nc3ccc(OCCN4CCOCC4)cc3)n2)c1 [R926710, 5-Fluoro-N2-(3-hydroxyphenyl)-N4-[4-[2-(N-morpholino)ethyleneoxy]phenyl]-2,4-pyrimidinediamine]
0.999 | 8.01 | CCOC(=O)C(C)(C)c1ccc(Nc2nc(Nc3cccc(O)c3)ncc2F)cc1 [R935169, N4-[4-[(1-Ethoxycarbonyl-1-methyl)ethyl]phenyl]-5-fluoro-N2-(3-hydroxyphenyl)-2,4-pyrimidinediamine]
0.21 | > 10 | Cn1cc2cc(Nc3ncc(F)c(Nc4cccc(O)c4)n3)ccc2n1 [R935299, 5-Fluoro-N4-(3-hydroxyphenyl)-N2-(2-methy-indazoline-5-yl)-2,4-pyrimidinediamine]
3.5 | > 10 | CCOC(=O)COc1cccc(Nc2ncc(F)c(Nc3ccc4c(c3)C(=O)OC4)n2)c1 [R940285, N2-[3-Ethoxycarbonylmethyleneoxyphenyl]-N4-(3,3-dihydroisobenzofuranyl-1-one-6-yl)-5-fluoro-2,4-pyrimidinediamine]
0.324 | > 10 | OCCn1ncc2cc(Nc3ncc(F)c(Nc4cccc(O)c4)n3)ccc21 [R935256, 5-Fluoro-N2-[1-(2-hydroxyethyl)indazoline-5-yl]-N4-(3-hydroxyphenyl)-2,4-pyrimidinediamine]
0.636 | > 10 | O=C(CNc1cccc(Nc2ncc(F)c(Nc3cccc(O)c3)n2)c1)N1CCOCC1 [R950221, 5-Fluoro-N4-(3-hydroxyphenyl)-N2-[3-(N-morpholino)carbonylmethyleneaminophenyl]-2,4-pyrimidinediamine]
